# Measurements published in patent US12433865B2, “Compositions comprising PGI2-receptor agonists and processes for the preparation thereof” (Arena Pharmaceuticals, Inc., priority 2018, dated 2025).
# Test: Release (dissolution) profile of capsules, USP Apparatus 2 (paddle)
# Assay type: physicochemical
# Excerpt: USP Apparatus 2 (Paddle Apparatus) is described, for example, in the United States Pharmacopeial Convention, Feb. 1, 2012, Chapter <711> (“Dissolution”), incorporated by reference herein in its entirety. See http://www.usp.org/sites/default/files/usp_pdf/EN/USPNF/revisions/m99470-gc_711.pdf. The assembly from Apparatus 1 is used, except that a paddle formed from a blade and a shaft is used as the stirring element. The shaft is positioned so that its axis is not more than 2 mm from the vertical axis of the vessel at any point and rotates smoothly without significant wobble that could affect the results. The vertical center line of the blade passes through the axis of the shaft so that the bottom of the blade is flush with the bottom of the shaft. A distance of 25±2 mm between the bottom of the blade and the inside bottom of the vessel is maintained during the test. The metallic or suitably inert, rigid blade and shaft comprise a single entity. A suitable two-part detachable design may be used provided the assembly remains firmly engaged during the test. The paddle blade and shaft may be coated with a suitable coating so as to make them inert. The dosage unit is allowed to sink to the bottom of the vessel before rotation of the blade is started. A small, loose piece of nonreactive material, such as not more than a few turns of wire helix, may be attached to dosage units that would otherwise float. Other validated sinker devices may be used.
# Unless otherwise specified, the release profiles for capsules were measured using USP Apparatus 2 (paddle).
# All release profiles disclosed in Tables 3c-3p were measured with USP Apparatus 2 (paddle) at 50 rpm in 500 mL of aqueous sodium phosphate at a concentration of 0.05 M (pH=6.8). The values in a given table relate to capsules obtained from the same batch. Values shown represent mean values over a number of dissolution tests (“n” in each table) in each case.
structure (smiles),measurement,setting,value
"O=C(O)COC[C@H]1CC[C@H](COC(=O)N(c2ccccc2)c2ccc(Cl)cc2)CC1 [Compound 1, 2-(((1r,4r)-4-(((4-chlorophenyl)(phenyl)carbamoyloxy)methyl)cyclohexyl)methoxy)acetic acid]",mean value (n = 6) of % of Compound 1 released,"Table 3k: size 4 capsule, 0.03 mg Compound 1, Poloxamer 188:food grade GMS 50:50, 360 min",91.4%
same,mean value (n = 6) of % of Compound 1 released,"Table 3k: size 4 capsule, 0.03 mg Compound 1, Poloxamer 188:food grade GMS 50:50, 480 min",98.3%
same,mean value (n = 4) of % of Compound 1 released,"Table 3l: size 4 capsule, 0.5 mg Compound 1, Poloxamer 188:food grade GMS 50:50, 30 min",9.9%
same,mean value (n = 4) of % of Compound 1 released,"Table 3l: size 4 capsule, 0.5 mg Compound 1, Poloxamer 188:food grade GMS 50:50, 60 min",22.2%
same,mean value (n = 4) of % of Compound 1 released,"Table 3l: size 4 capsule, 0.5 mg Compound 1, Poloxamer 188:food grade GMS 50:50, 120 min",42.9%
same,mean value (n = 4) of % of Compound 1 released,"Table 3l: size 4 capsule, 0.5 mg Compound 1, Poloxamer 188:food grade GMS 50:50, 180 min",61.5%
same,mean value (n = 4) of % of Compound 1 released,"Table 3l: size 4 capsule, 0.5 mg Compound 1, Poloxamer 188:food grade GMS 50:50, 240 min",76.9%
same,mean value (n = 4) of % of Compound 1 released,"Table 3l: size 4 capsule, 0.5 mg Compound 1, Poloxamer 188:food grade GMS 50:50, 360 min",92.2%
same,mean value (n = 4) of % of Compound 1 released,"Table 3l: size 4 capsule, 0.5 mg Compound 1, Poloxamer 188:food grade GMS 50:50, 480 min",96.7%
same,mean value (n = 6) of % of Compound 1 released,"Table 3m: size 4 capsule, 0.03 mg Compound 1, Poloxamer 188:food grade GMS 30:70, 60 min",15.3%
same,mean value (n = 6) of % of Compound 1 released,"Table 3m: size 4 capsule, 0.03 mg Compound 1, Poloxamer 188:food grade GMS 30:70, 120 min",27.4%
same,mean value (n = 6) of % of Compound 1 released,"Table 3m: size 4 capsule, 0.03 mg Compound 1, Poloxamer 188:food grade GMS 30:70, 180 min",38.4%
same,mean value (n = 6) of % of Compound 1 released,"Table 3m: size 4 capsule, 0.03 mg Compound 1, Poloxamer 188:food grade GMS 30:70, 240 min",49.0%
same,mean value (n = 6) of % of Compound 1 released,"Table 3m: size 4 capsule, 0.03 mg Compound 1, Poloxamer 188:food grade GMS 30:70, 360 min",70.1%
same,mean value (n = 6) of % of Compound 1 released,"Table 3m: size 4 capsule, 0.03 mg Compound 1, Poloxamer 188:food grade GMS 30:70, 480 min",85.9%
same,mean value (n = 6) of % of Compound 1 released,"Table 3m: size 4 capsule, 0.03 mg Compound 1, Poloxamer 188:food grade GMS 30:70, 600 min",93.5%
same,mean value (n = 6) of % of Compound 1 released,"Table 3m: size 4 capsule, 0.03 mg Compound 1, Poloxamer 188:food grade GMS 30:70, 720 min",97.6%
same,mean value (n = 6) of % of Compound 1 released,"Table 3m: size 4 capsule, 0.03 mg Compound 1, Poloxamer 188:food grade GMS 30:70, 840 min",99.0%
same,mean value (n = 4) of % of Compound 1 released,"Table 3n: size 4 capsule, 0.5 mg Compound 1, Poloxamer 188:food grade GMS 30:70, 30 min",7.9%
same,mean value (n = 4) of % of Compound 1 released,"Table 3n: size 4 capsule, 0.5 mg Compound 1, Poloxamer 188:food grade GMS 30:70, 60 min",15.5%
same,mean value (n = 4) of % of Compound 1 released,"Table 3n: size 4 capsule, 0.5 mg Compound 1, Poloxamer 188:food grade GMS 30:70, 120 min",26.9%
same,mean value (n = 4) of % of Compound 1 released,"Table 3n: size 4 capsule, 0.5 mg Compound 1, Poloxamer 188:food grade GMS 30:70, 180 min",37.9%
same,mean value (n = 4) of % of Compound 1 released,"Table 3n: size 4 capsule, 0.5 mg Compound 1, Poloxamer 188:food grade GMS 30:70, 240 min",48.8%
same,mean value (n = 4) of % of Compound 1 released,"Table 3n: size 4 capsule, 0.5 mg Compound 1, Poloxamer 188:food grade GMS 30:70, 360 min",68.7%
same,mean value (n = 4) of % of Compound 1 released,"Table 3n: size 4 capsule, 0.5 mg Compound 1, Poloxamer 188:food grade GMS 30:70, 480 min",83.4%
same,mean value (n = 4) of % of Compound 1 released,"Table 3n: size 4 capsule, 0.5 mg Compound 1, Poloxamer 188:food grade GMS 30:70, 600 min",90.6%
same,mean value (n = 4) of % of Compound 1 released,"Table 3n: size 4 capsule, 0.5 mg Compound 1, Poloxamer 188:food grade GMS 30:70, 720 min",94.7%
same,mean value (n = 4) of % of Compound 1 released,"Table 3n: size 4 capsule, 0.5 mg Compound 1, Poloxamer 188:food grade GMS 30:70, 735 min",95.7%
same,mean value (n = 4) of % of Compound 1 released,"Table 3o: size 4 capsule, 0.5 mg Compound 1, Poloxamer 188:food grade GMS 30:70, 30 min",5.6%
same,mean value (n = 4) of % of Compound 1 released,"Table 3o: size 4 capsule, 0.5 mg Compound 1, Poloxamer 188:food grade GMS 30:70, 60 min",13.3%
same,mean value (n = 4) of % of Compound 1 released,"Table 3o: size 4 capsule, 0.5 mg Compound 1, Poloxamer 188:food grade GMS 30:70, 120 min",25.5%
same,mean value (n = 4) of % of Compound 1 released,"Table 3o: size 4 capsule, 0.5 mg Compound 1, Poloxamer 188:food grade GMS 30:70, 180 min",37.7%
same,mean value (n = 4) of % of Compound 1 released,"Table 3o: size 4 capsule, 0.5 mg Compound 1, Poloxamer 188:food grade GMS 30:70, 240 min",49.7%
same,mean value (n = 4) of % of Compound 1 released,"Table 3o: size 4 capsule, 0.5 mg Compound 1, Poloxamer 188:food grade GMS 30:70, 360 min",71.2%
same,mean value (n = 4) of % of Compound 1 released,"Table 3o: size 4 capsule, 0.5 mg Compound 1, Poloxamer 188:food grade GMS 30:70, 480 min",84.0%
same,mean value (n = 4) of % of Compound 1 released,"Table 3o: size 4 capsule, 0.5 mg Compound 1, Poloxamer 188:food grade GMS 30:70, 600 min",89.7%
same,mean value (n = 4) of % of Compound 1 released,"Table 3o: size 4 capsule, 0.5 mg Compound 1, Poloxamer 188:food grade GMS 30:70, 720 min",93.1%
same,mean value (n = 4) of % of Compound 1 released,"Table 3o: size 4 capsule, 0.5 mg Compound 1, Poloxamer 188:food grade GMS 30:70, 735 min",94.8%
same,mean value (n = 4) of % of Compound 1 released,"Table 3p: size 4 capsule, 0.5 mg Compound 1, Poloxamer 188:food grade GMS 30:70, 30 min",7.3%
same,mean value (n = 4) of % of Compound 1 released,"Table 3p: size 4 capsule, 0.5 mg Compound 1, Poloxamer 188:food grade GMS 30:70, 60 min",14.3%
same,mean value (n = 4) of % of Compound 1 released,"Table 3p: size 4 capsule, 0.5 mg Compound 1, Poloxamer 188:food grade GMS 30:70, 120 min",26.1%
same,mean value (n = 4) of % of Compound 1 released,"Table 3p: size 4 capsule, 0.5 mg Compound 1, Poloxamer 188:food grade GMS 30:70, 180 min",38.5%
same,mean value (n = 4) of % of Compound 1 released,"Table 3p: size 4 capsule, 0.5 mg Compound 1, Poloxamer 188:food grade GMS 30:70, 240 min",51.1%
same,mean value (n = 4) of % of Compound 1 released,"Table 3p: size 4 capsule, 0.5 mg Compound 1, Poloxamer 188:food grade GMS 30:70, 360 min",74.3%
same,mean value (n = 4) of % of Compound 1 released,"Table 3p: size 4 capsule, 0.5 mg Compound 1, Poloxamer 188:food grade GMS 30:70, 480 min",87.0%
same,mean value (n = 4) of % of Compound 1 released,"Table 3p: size 4 capsule, 0.5 mg Compound 1, Poloxamer 188:food grade GMS 30:70, 600 min",92.3%
same,mean value (n = 4) of % of Compound 1 released,"Table 3p: size 4 capsule, 0.5 mg Compound 1, Poloxamer 188:food grade GMS 30:70, 720 min",95.0%
